Data as given in PubChem BioAssay (NCI).
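Method: 48-hour compound exposure of cells in 96-well plates, five concentrations, linear interpolation of endpoints. At the GI50, growth is halved. TGI: concentration producing complete growth inhibition.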

Assays:
Assay in all cases: inhibition of tumour cell growth, NCI panel, 48 h
SF-539 CNS = tested on: SF-539 CNS
M14 melanoma = tested on: M14 melanoma
HCT-15 colon = tested on: HCT-15 colon
RXF 393 renal = tested on: RXF 393 renal
MALME-3M melanoma = tested on: MALME-3M melanoma
MOLT-4 leukemia = tested on: MOLT-4 leukemia
U251 CNS = tested on: U251 CNS
NCI-H226 lung = tested on: NCI-H226 lung

Row | SMILES | GI50 (SF-539 CNS) [µM] | TGI (SF-539 CNS) [µM] | GI50 (M14 melanoma) [µM] | TGI (M14 melanoma) [µM] | GI50 (HCT-15 colon) [µM] | TGI (HCT-15 colon) [µM] | GI50 (RXF 393 renal) [µM] | TGI (RXF 393 renal) [µM] | GI50 (MALME-3M melanoma) [µM] | TGI (MALME-3M melanoma) [µM] | GI50 (MOLT-4 leukemia) [µM] | TGI (MOLT-4 leukemia) [µM] | GI50 (U251 CNS) [µM] | TGI (U251 CNS) [µM] | TGI (NCI-H226 lung) [µM] | GI50 (NCI-H226 lung) [µM]
1 | CN(C)CCCNC(=O)c1ccc2oc3cc4ccccc4c(=O)n3c2c1 | 13.6 | 30.5 | 30.3 | > 50 | 23.8 | > 50 | 41.6 | > 50 | > 50 | > 50 | > 50 | > 50 | 37.5 | > 50 | – | –
2 | CCCOc1ccc(-c2nc(-c3ccc(N=Cc4ccc(N(CCOS(C)(=O)=O)CCOS(C)(=O)=O)cc4C)cc3)cs2)cc1 | – | 48.8 | – | > 86.4 | – | > 72.2 | – | 28.9 | – | > 95.6 | – | 66.6 | – | 52.4 | 84.5 | –
3 | NC(=NCCCC1(c2ccccc2)CCCC1)Nc1ccc(Cl)cc1 | 1.75 | 3.23 | 1.59 | 3.27 | 1.75 | 3.29 | 1.47 | 2.88 | 1.69 | 3.66 | 1.58 | 4.11 | 1.69 | 3.11 | – | –
4 | CCNCCC1(CC)C(=O)NC(=O)NC1=O | – | > 100 | – | > 100 | – | > 100 | – | > 100 | – | > 100 | – | > 100 | – | > 100 | > 100 | –
5 | CNC(=O)c1c(NC(=O)c2ccc(C(F)(F)F)cc2)sc2c1CCC(=O)C2 | 0.386 | 1.72 | 0.508 | 3.77 | 0.239 | 1.76 | 0.41 | 2.15 | 1.11 | 3.88 | 0.47 | 4.01 | 0.314 | 2.06 | 5.35 | 1.82
6 | CC(C)CCSC1=CC(=O)c2ccccc2C1=O | 5.74 | 22.7 | 15.6 | 33.4 | 6.61 | 19.1 | 5.06 | 16.3 | 1.57 | 4.24 | 0.228 | 0.611 | 8.11 | 21.5 | 32.8 | 6.82
7 | CO/[N+]([O-])=C\C(=O)N/C=C/C(=O)O | – | > 100 | – | > 100 | – | > 100 | – | > 100 | – | > 100 | – | > 100 | – | > 100 | > 100 | –
8 | NC(=O)/C(=C\c1ccncc1)c1cccc2ccccc12 | – | > 100 | – | > 100 | – | > 100 | – | > 100 | – | > 100 | – | > 100 | – | > 100 | 95.2 | –
9 | CN[C@@H](C)C(=O)N[C@H]1CN(C(=O)CC(C)C)CC[C@H]2CC[C@@H](C(=O)NC(c3ccccc3)c3ccccc3)N2C1=O | 1.78 | > 100 | > 100 | > 100 | > 100 | > 100 | 7.38 | > 100 | 4.29 | > 53.9 | > 86.7 | > 100 | > 100 | > 100 | > 100 | > 100
10 | CCN(CC)c1ccc(C2CC(c3cc(OC)c(OC)c(OC)c3)=NN2)cc1 (centres undefined) | 0.29 | 2.18 | 1.16 | > 100 | 0.597 | > 100 | – | – | 14.5 | > 78.7 | 1.56 | 8.14 | 0.42 | > 100 | > 29.7 | 4.48
11 | COc1c2ccoc2cc2oc(=O)ccc12 | – | > 100 | – | > 100 | – | > 100 | – | > 100 | – | > 100 | – | > 100 | – | > 100 | > 100 | –
12 | Cc1ncc(C(=O)Nc2ccc(CN3CCN(C)CC3)c(C(F)(F)F)c2)cc1C#Cc1cnc(N)c2cnccc12 | 0.193 | 1.29 | 0.0225 | 0.17 | 0.389 | 4.41 | 0.0706 | 0.399 | < 0.0113 | 0.042 | 0.0412 | 4.98 | 0.0864 | 2.35 | 3.09 | 0.175
13 | NCCCCCCCCn1c2c(c3ccccc3c1=O)C(=O)c1ccccc1-2 | 2.84 | 8.62 | 3.4 | 10.4 | 3.26 | 10.2 | 4.58 | > 100 | 2.85 | 8.86 | 1.82 | 3.53 | 13.4 | 35.9 | 34.8 | 14
14 | COc1cc(-c2nc(NC(C)=O)sc2-c2ccnc(NCCNS(=O)(=O)c3ccccc3)n2)ccc1Cl | 2.86 | 8.48 | 2.09 | 5.42 | 3.78 | > 100 | 2.74 | 7.53 | 3.8 | > 100 | 3.17 | > 100 | 5.22 | > 100 | > 100 | 6.45
15 | COc1ccc(CCN2CCCN3C2=Nc2ccccc2S3(=O)=O)cc1 | 0.272 | 1.04 | 0.322 | > 100 | 0.342 | > 100 | 0.622 | > 100 | – | – | 0.464 | > 100 | 0.388 | > 100 | > 100 | 8.25
16 | CCC(=O)C1(c2ccccc2)CCN(C)CC1 | – | – | – | > 100 | – | > 100 | – | > 100 | – | > 100 | – | > 100 | – | > 100 | – | –
17 | O=c1[nH]cc(/C=N\Nc2ccccc2)c(=O)[nH]1 | – | > 100 | – | > 100 | – | > 100 | – | > 100 | – | > 100 | – | – | – | > 100 | > 100 | –
18 | Cc1ccc2c(c1)C(C)Cc1c(ncnc1-n1cnc3cc(C)ccc31)N2C (centres undefined) | 0.0218 | 0.0593 | – | – | 0.0334 | 11.7 | 0.0289 | 8.74 | 11 | 23.7 | 0.0407 | 13.8 | 0.0362 | 12.1 | 22.8 | 0.0551
19 | COc1ccccc1/C=C/C(=O)c1c(O)cc2occc2c1OC | 24.3 | > 100 | > 100 | > 100 | > 100 | > 100 | 14.9 | 42.6 | 18.9 | 80.6 | – | – | 18.9 | > 100 | > 100 | 25.1
20 | O=Cc1ccc(-c2ccc(-c3nc4ccccc4[nH]3)cc2)s1 | – | – | 18.2 | 43.2 | 19.1 | 53.3 | 22.7 | 57.8 | – | – | 32.4 | > 100 | 26.7 | > 100 | 82.3 | 27.3
21 | CCOC(CCCNCCCn1c2c(c3cc(OC)c(OC)cc3c1=O)C(=O)c1cc3c(cc1-2)OCO3)OCC | – | – | 5.25 | 11.1 | 6.1 | 12.3 | 4.45 | 10.7 | 6.77 | 13.6 | – | – | 1.51 | 9.44 | 10.7 | 3.43
22 | O=Nc1ccc(O)c2ccccc12 | 2.11 | 4.05 | 1.83 | 3.41 | 2.14 | 4.98 | 2.86 | 8.24 | 1.61 | 3.62 | – | – | 1.65 | 3.17 | 4.3 | 2.02
23 | O=C(NCCc1ccccc1)C(c1ccccc1)(c1ccccc1)c1ccccc1 | – | – | – | – | 5.91 | > 100 | – | – | – | – | > 100 | > 100 | 2.93 | 12.4 | – | –
24 | COc1cc2c(c(OC)c1O)-c1ccc(OC)c(=O)cc1[C@@H](NC(=O)C(F)(F)F)CC2 | – | 0.087 | – | > 100 | – | > 100 | – | – | – | > 100 | – | > 100 | – | > 100 | – | –
25 | COc1c2c3ccccc3nc-2n(C)c2ccccc12 | 8.83 | 25.9 | – | – | 5.29 | 50.6 | 21.3 | 78.1 | – | – | 4.7 | > 100 | 7.81 | 32.7 | 74.3 | 6.77
26 | COC(=O)NC1(NC(=O)OC)NC(=O)c2cc(OC)c(OC)cc2N1 | – | 60.8 | – | > 100 | – | > 100 | – | – | – | – | – | – | – | – | – | –
27 | Cc1nc2ccccn2c1NC(=O)NNC(=S)Nc1ccc(Br)cc1 | 22.4 | 55.2 | 24.5 | 67.9 | 28.8 | > 100 | 52.6 | > 100 | – | – | 36.7 | > 100 | 32.1 | > 100 | > 100 | 38.4
28 | CCN(CC)CCCC(C)Nc1cc(-c2ccc(C(F)(F)F)cc2)c(C#N)c2nc3ccccc3n12 (centres undefined) | – | – | 1.81 | 3.37 | 1.88 | 4.03 | 1.4 | 2.96 | 1.83 | 3.54 | 3.19 | 12.1 | 2.04 | 4.16 | – | –
